Results as given in patent US10004701B2, “Methods and compositions for treating infection” (UNIVERSITY OF ROCHESTER, priority 2012, dated 2018).
Where a name gives a salt, the structure may show the parent alone. Read-outs that look alike come from different tables or passages of the source.

Assays:
Assay in all cases: AK assay 384-well format, Prestwick library screening
E. faecium = assay type: cell-based, Enterococcus faecium; settings: 50 μM final drug concentration; for fold induction at 50 µM: Enterococcus faecium, 3 h
[1] = test system: S. aureus strain USA300-0114; assay type: cell-based, Staphylococcus aureus; settings: 50 μM final drug concentration; for fold induction at 50 µM: Staphylococcus aureus, USA300, 3 h
K. pneumoniae = assay type: cell-based, Klebsiella pneumoniae; settings: 50 μM final drug concentration; for fold induction at 50 µM: Klebsiella pneumoniae, 3 h
[2] = test system: A. baumannii strain 98-37-09; assay type: cell-based, Acinetobacter baumannii; settings: 50 μM final drug concentration; for fold induction at 50 µM: Acinetobacter baumannii, 983709, 3 h
P. aeruginosa = assay type: cell-based, Pseudomonas aeruginosa; settings: 50 μM final drug concentration; for fold induction at 50 µM: Pseudomonas aeruginosa, 3 h
E. cloacae = assay type: cell-based, Enterobacter cloacae; settings: 50 μM final drug concentration; for fold induction at 50 µM: Enterobacter cloacae, 3 h
E. coli = assay type: cell-based, Escherichia coli; settings: 50 μM final drug concentration; for fold induction at 50 µM: Escherichia coli, 3 h
[3] = cutoff for positive-scoring molecules 3-fold increase, read-out: AK-based Prestwick Library Screening Results, E. faecium (fold increase in extracellular AK activity)
[4] = cutoff for positive-scoring molecules 3-fold increase, read-out: AK-based Prestwick Library Screening Results, S. aureus (fold increase in extracellular AK activity)
[5] = cutoff for positive-scoring molecules 3-fold increase, read-out: AK-based Prestwick Library Screening Results, K. pneumoniae (fold increase in extracellular AK activity)
[6] = cutoff for positive-scoring molecules 3-fold increase, read-out: AK-based Prestwick Library Screening Results, A. baumannii (fold increase in extracellular AK activity)
[7] = cutoff for positive-scoring molecules 3-fold increase, read-out: AK-based Prestwick Library Screening Results, P. aeruginosa (fold increase in extracellular AK activity)
[8] = cutoff for positive-scoring molecules 3-fold increase, read-out: AK-based Prestwick Library Screening Results, E. cloacae (fold increase in extracellular AK activity)
[9] = cutoff for positive-scoring molecules 3-fold increase, read-out: AK-based Prestwick Library Screening Results, E. coli (fold increase in extracellular AK activity)

Compound: COc1ccc(C[C@H](N)C(=O)N[C@H]2[C@@H](O)[C@H](n3cnc4c(N(C)C)ncnc43)O[C@@H]2CO)cc1 [Puromycin dihydrochloride]
- fold induction at 50 µM (E. faecium; planktonic, cutoff for positive 3-fold increase, read-out: AK-based Prestwick Library Screening Results, E. faecium (fold increase in extracellular AK activity)): 1.1
- fold induction at 50 µM ([1]; planktonic, cutoff for positive 3-fold increase, read-out: AK-based Prestwick Library Screening Results, S. aureus (fold increase in extracellular AK activity)): 1.1
- fold induction at 50 µM (K. pneumoniae; planktonic, cutoff for positive 3-fold increase, read-out: AK-based Prestwick Library Screening Results, K. pneumoniae (fold increase in extracellular AK activity)): 1.1
- fold induction at 50 µM ([2]; planktonic, cutoff for positive 3-fold increase, read-out: AK-based Prestwick Library Screening Results, A. baumannii (fold increase in extracellular AK activity)): 1.6
- fold induction at 50 µM (P. aeruginosa; planktonic, cutoff for positive 3-fold increase, read-out: AK-based Prestwick Library Screening Results, P. aeruginosa (fold increase in extracellular AK activity)): 1
- fold induction at 50 µM (E. cloacae; planktonic, cutoff for positive 3-fold increase, read-out: AK-based Prestwick Library Screening Results, E. cloacae (fold increase in extracellular AK activity)): 1.4
- fold induction at 50 µM (E. coli; planktonic, cutoff for positive 3-fold increase, read-out: AK-based Prestwick Library Screening Results, E. coli (fold increase in extracellular AK activity)): 1.1

Compound: CC(O)(P(=O)(O)O)P(=O)(O)O [Etidronic acid, disodium salt]
- fold induction at 50 µM (E. faecium; [3]): 1
- fold induction at 50 µM [1, 4]: 1.2
- fold induction at 50 µM (K. pneumoniae; [5]): 1
- fold induction at 50 µM [2, 6]: 1.2
- fold induction at 50 µM (P. aeruginosa; [7]): 1.1
- fold induction at 50 µM (E. cloacae; [8]): 1.4
- fold induction at 50 µM (E. coli; [9]): 1.3

Compound: Antimycin A
- AK-based Prestwick Library Screening Results: E. faecium (increase in extracellular AK activity) (E. faecium; planktonic E. faecium, 384-well, […]): 1.1
- AK-based Prestwick Library Screening Results: S. aureus (increase in extracellular AK activity) ([1]; planktonic S. aureus, 384-well, […]): 1.0
- AK-based Prestwick Library Screening Results: K. pneumoniae (increase in extracellular AK activity) (K. pneumoniae; planktonic K. pneumoniae, 384-well, […]): 1.0
- AK-based Prestwick Library Screening Results: A. baumannii (increase in extracellular AK activity) ([2]; planktonic A. baumannii, 384-well, […]): 1.4
- AK-based Prestwick Library Screening Results: P. aeruginosa (increase in extracellular AK activity) (P. aeruginosa; planktonic P. aeruginosa, 384-well, […]): 1.1
- AK-based Prestwick Library Screening Results: E. cloacae (increase in extracellular AK activity) (E. cloacae; planktonic E. cloacae, 384-well, […]): 1.3
- AK-based Prestwick Library Screening Results: E. coli (increase in extracellular AK activity) (E. coli; planktonic E. coli, 384-well, […]): 1.3

Compound: CC(C)(C)NC(=O)[C@H]1CC[C@H]2[C@@H]3CC[C@H]4NC(=O)C=C[C@]4(C)[C@H]3CC[C@]12C [Finasteride]
- fold induction at 50 µM (E. faecium; [3]): 1.1
- fold induction at 50 µM [1, 4]: 1
- fold induction at 50 µM (K. pneumoniae; [5]): 0.9
- fold induction at 50 µM [2, 6]: 1.2
- fold induction at 50 µM (P. aeruginosa; [7]): 1.1
- fold induction at 50 µM (E. cloacae; [8]): 1.8
- fold induction at 50 µM (E. coli; [9]): 1.1

Compound: CC(=O)[C@H]1CC[C@H]2[C@@H]3C[C@H](C)C4=CC(=O)CC[C@]4(C)[C@H]3[C@@H](O)C[C@]12C [Medrysone]
- fold induction at 50 µM (E. faecium; planktonic, cutoff for positive-scoring molecules 3-fold increase, read-out: AK-based Prestwick Library Screening Results, E. faecium (fold increase in extracellular AK activity)): 1
- fold induction at 50 µM ([1]; planktonic, cutoff for positive-scoring molecules 3-fold increase, read-out: AK-based Prestwick Library Screening Results, S. aureus (fold increase in extracellular AK activity)): 0.6
- fold induction at 50 µM (K. pneumoniae; planktonic, cutoff for positive-scoring molecules 3-fold increase, read-out: AK-based Prestwick Library Screening Results, K. pneumoniae (fold increase in extracellular AK activity)): 0.7
- fold induction at 50 µM ([2]; planktonic, cutoff for positive-scoring molecules 3-fold increase, read-out: AK-based Prestwick Library Screening Results, A. baumannii (fold increase in extracellular AK activity)): 0.7
- fold induction at 50 µM (P. aeruginosa; planktonic, cutoff for positive-scoring molecules 3-fold increase, read-out: AK-based Prestwick Library Screening Results, P. aeruginosa (fold increase in extracellular AK activity)): 0.8
- fold induction at 50 µM (E. cloacae; planktonic, cutoff for positive-scoring molecules 3-fold increase, read-out: AK-based Prestwick Library Screening Results, E. cloacae (fold increase in extracellular AK activity)): 1
- fold induction at 50 µM (E. coli; planktonic, cutoff for positive-scoring molecules 3-fold increase, read-out: AK-based Prestwick Library Screening Results, E. coli (fold increase in extracellular AK activity)): 0.7

Compound: Cc1ccc(/C(=C\CN2CCCC2)c2ccccn2)cc1 [Triprolidine hydrochloride]
- fold induction at 50 µM (E. faecium; 384-well format, cutoff for positive-scoring molecules 3-fold increase, read-out: AK-based Prestwick Library Screening Results, E. faecium (increase in extracellular AK activity)): 1
- fold induction at 50 µM ([1]; 384-well format, cutoff for positive-scoring molecules 3-fold increase, read-out: AK-based Prestwick Library Screening Results, S. aureus (increase in extracellular AK activity)): 0.6
- fold induction at 50 µM (K. pneumoniae; 384-well format, cutoff for positive-scoring molecules 3-fold increase, read-out: AK-based Prestwick Library Screening Results, K. pneumoniae (increase in extracellular AK activity)): 0.7
- fold induction at 50 µM ([2]; 384-well format, cutoff for positive-scoring molecules 3-fold increase, read-out: AK-based Prestwick Library Screening Results, A. baumannii (increase in extracellular AK activity)): 0.9
- fold induction at 50 µM (P. aeruginosa; 384-well format, cutoff for positive-scoring molecules 3-fold increase, read-out: AK-based Prestwick Library Screening Results, P. aeruginosa (increase in extracellular AK activity)): 1
- fold induction at 50 µM (E. cloacae; 384-well format, cutoff for positive-scoring molecules 3-fold increase, read-out: AK-based Prestwick Library Screening Results, E. cloacae (increase in extracellular AK activity)): 1
- fold induction at 50 µM (E. coli; 384-well format, cutoff for positive-scoring molecules 3-fold increase, read-out: AK-based Prestwick Library Screening Results, E. coli (increase in extracellular AK activity)): 1

Compound: CCCCOC(=O)c1ccc(O)cc1 [Butylparaben]
- fold induction at 50 µM (E. faecium; planktonic, […], read-out: AK-based Prestwick Library Screening Results, E. faecium (fold increase in extracellular AK activity)): 0.5
- fold induction at 50 µM ([1]; planktonic, […], read-out: AK-based Prestwick Library Screening Results, S. aureus (fold increase in extracellular AK activity)): 0.7
- fold induction at 50 µM (K. pneumoniae; planktonic, […], read-out: AK-based Prestwick Library Screening Results, K. pneumoniae (fold increase in extracellular AK activity)): 0.4
- fold induction at 50 µM ([2]; planktonic, […], read-out: AK-based Prestwick Library Screening Results, A. baumannii (fold increase in extracellular AK activity)): 0.6
- fold induction at 50 µM (P. aeruginosa; planktonic, […], read-out: AK-based Prestwick Library Screening Results, P. aeruginosa (fold increase in extracellular AK activity)): 0.6
- fold induction at 50 µM (E. cloacae; planktonic, […], read-out: AK-based Prestwick Library Screening Results, E. cloacae (fold increase in extracellular AK activity)): 1
- fold induction at 50 µM (E. coli; planktonic, […], read-out: AK-based Prestwick Library Screening Results, E. coli (fold increase in extracellular AK activity)): 0.5

Compound: CN1CCC2(C)c3cc(O)ccc3N(C)C12.O=C(O)/C=C/C(=O)O (single isomer, unassigned; (-)) [(−)-Eseroline fumarate salt]
- AK-based Prestwick library screening result, E. faecium (fold increase in extracellular AK activity) (E. faecium; planktonic E. faecium, […]): 1.1
- AK-based Prestwick library screening result, S. aureus (fold increase in extracellular AK activity) ([1]; planktonic S. aureus, […]): 0.9
- AK-based Prestwick library screening result, K. pneumoniae (fold increase in extracellular AK activity) (K. pneumoniae; planktonic K. pneumoniae, […]): 0.9
- AK-based Prestwick library screening result, A. baumannii (fold increase in extracellular AK activity) ([2]; planktonic A. baumannii, […]): 0.9
- AK-based Prestwick library screening result, P. aeruginosa (fold increase in extracellular AK activity) (P. aeruginosa; planktonic P. aeruginosa, […]): 0.8
- AK-based Prestwick library screening result, E. cloacae (fold increase in extracellular AK activity) (E. cloacae; planktonic E. cloacae, […]): 1.4
- AK-based Prestwick library screening result, E. coli (fold increase in extracellular AK activity) (E. coli; planktonic E. coli, […]): 1.0

Compound: CCCCC[C@H](O)/C=C/[C@H]1[C@H](O)CC(=O)[C@@H]1CCCCCCC(=O)O [Alprostadil]
- fold induction at 50 µM (E. faecium; planktonic E. faecium, positive cutoff 3-fold increase, read-out: AK-based Prestwick library screening result, E. faecium (fold increase in extracellular AK activity)): 1
- fold induction at 50 µM ([1]; planktonic S. aureus, positive cutoff 3-fold increase, read-out: AK-based Prestwick library screening result, S. aureus (fold increase in extracellular AK activity)): 1.1
- fold induction at 50 µM (K. pneumoniae; planktonic K. pneumoniae, positive cutoff 3-fold increase, read-out: AK-based Prestwick library screening result, K. pneumoniae (fold increase in extracellular AK activity)): 1.1
- fold induction at 50 µM ([2]; planktonic A. baumannii, positive cutoff 3-fold increase, read-out: AK-based Prestwick library screening result, A. baumannii (fold increase in extracellular AK activity)): 1
- fold induction at 50 µM (P. aeruginosa; planktonic P. aeruginosa, positive cutoff 3-fold increase, read-out: AK-based Prestwick library screening result, P. aeruginosa (fold increase in extracellular AK activity)): 1.1
- fold induction at 50 µM (E. cloacae; planktonic E. cloacae, positive cutoff 3-fold increase, read-out: AK-based Prestwick library screening result, E. cloacae (fold increase in extracellular AK activity)): 1.4
- fold induction at 50 µM (E. coli; planktonic E. coli, positive cutoff 3-fold increase, read-out: AK-based Prestwick library screening result, E. coli (fold increase in extracellular AK activity)): 1.3
